Common to all, as to assay type: cell-based
For experiment [1], the target named is T1, OR10G7 (Homo sapiens, UniProt Q8NGN6, T5S).
T1 construct: expressed in transfected cells
T1 sequence (Q8NGN6 1-311 T5S): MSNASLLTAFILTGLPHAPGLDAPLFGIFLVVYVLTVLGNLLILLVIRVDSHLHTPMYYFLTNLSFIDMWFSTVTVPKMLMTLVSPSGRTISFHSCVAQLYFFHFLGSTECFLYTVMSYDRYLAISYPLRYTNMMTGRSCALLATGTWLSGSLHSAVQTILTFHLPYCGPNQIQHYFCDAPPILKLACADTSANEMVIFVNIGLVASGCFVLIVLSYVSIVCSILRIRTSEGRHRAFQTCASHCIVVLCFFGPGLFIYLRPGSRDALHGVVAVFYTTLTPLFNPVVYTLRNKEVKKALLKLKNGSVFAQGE
As to the kind of experiment: Ligand-induced OR-dependent puromycin resistance, OR10G7 cells. The settings on record: HEK293T, pGL4.29-CRE-Puro-Hygro-OR with OR10G7; musk ketone 10 μM, eugenol or isoeugenol 1 μM, ultravanil or vanitrope 100 μM; puromycin 0.015-16 μg/ml; PrestoBlue viability day 4. How it is done:
(§1) Stable clones selected with hygromycin containing a stable insertion of the pGL4.29-CRE-Puro-Hygro-OR construct described in Example 1 with either one of the receptors OR10G7, OR10G9 or OR5AN1 (NCBI Genbank Gene ID 390265, 219870 and 390195) were plated at a density of 3000 cells/per well in 200 μl Dubelcco's Modified Eagle medium (DMEM) in polyethyleneimide-coated, white 96 well microtiter plates with a transparent bottom. After cells were allowed to adhere for 24 h, they were exposed to different odorants (musk ketone at 10 μM, eugenol or isoeugenol at 1 μM, ultravanil or vanitrope at 100 μM). 7 h after odorant addition, 100 μl of the medium was removed and replaced with fresh medium with the same odorant concentrations and, in addition, puromycin to reach a final concentration of 0.015-16 μg/ml in 11 twofold dilution steps (day 1 of selection). On day 2 and 3, 100 μl of the medium was again removed and replaced with fresh medium with the same concentration of odorant and puromycin. On day 4 of the selection, medium from each well was removed completely, 100 ul PrestoBlue® cell viability reagent (ThermoFisher Scientific, Catalog No: 14200-083) diluted in phosphate buffered saline was added to each well and cells were incubated at 37° C. until a color change was visible in the wells containing no puromycin. The fluorescence was determined at 560 excitation and 590 nm emission to assess relative cell metabolic activity, which is the net result of cell growth and cell killing in presence of the different puromycin concentrations. The result was expressed as % viability relative to controls with no cells (0%) and cells treated with olfactory ligand only (100%).

Experiment [2] addresses T2, OR5AN1 (Homo sapiens, UniProt Q8NGI8).
T2 construct: expressed in transfected cells
T2 sequence (Q8NGI8 1-311): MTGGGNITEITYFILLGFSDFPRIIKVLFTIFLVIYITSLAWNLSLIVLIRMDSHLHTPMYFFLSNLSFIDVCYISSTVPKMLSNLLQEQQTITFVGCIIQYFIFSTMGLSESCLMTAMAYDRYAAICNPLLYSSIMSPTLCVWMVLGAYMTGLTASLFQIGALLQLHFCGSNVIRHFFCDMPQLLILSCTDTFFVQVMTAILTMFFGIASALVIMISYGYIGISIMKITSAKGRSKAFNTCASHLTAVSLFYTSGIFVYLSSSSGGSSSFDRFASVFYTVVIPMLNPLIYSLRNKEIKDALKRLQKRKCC
As to the kind of experiment: Ligand-induced OR-dependent puromycin resistance, OR5AN1 cells. The settings on record: HEK293T, pGL4.29-CRE-Puro-Hygro-OR with OR5AN1; musk ketone 10 μM, eugenol or isoeugenol 1 μM, ultravanil 100 μM; puromycin 0.015-16 μg/ml; PrestoBlue viability day 4. As to the method:
as §1

Experiment [3] addresses T3, OR10G9 (Homo sapiens, UniProt Q8NGN4).
T3 construct: expressed in transfected cells
T3 sequence (Q8NGN4 1-311): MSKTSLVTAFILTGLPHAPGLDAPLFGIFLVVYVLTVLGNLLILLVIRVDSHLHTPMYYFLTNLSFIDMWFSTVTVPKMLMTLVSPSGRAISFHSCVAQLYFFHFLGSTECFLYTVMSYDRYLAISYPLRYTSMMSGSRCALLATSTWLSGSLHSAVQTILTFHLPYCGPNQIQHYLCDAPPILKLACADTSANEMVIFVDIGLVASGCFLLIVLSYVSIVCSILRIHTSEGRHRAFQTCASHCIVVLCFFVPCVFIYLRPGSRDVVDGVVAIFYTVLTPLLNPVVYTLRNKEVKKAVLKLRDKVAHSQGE
Briefly: Ligand-induced OR-dependent puromycin resistance, OR10G9 cells. As to conditions: HEK293T, pGL4.29-CRE-Puro-Hygro-OR with OR10G9; musk ketone 10 μM, eugenol or isoeugenol 1 μM, ultravanil or vanitrope 100 μM; puromycin 0.015-16 μg/ml; PrestoBlue viability day 4. As to the method:
as §1

For experiment [4], the target named is T4, OR5A2 (clone 3) (Homo sapiens, UniProt Q8NGI9).
T4 construct: expressed in transfected cells; clone 3 selected with musk ambrette and puromycin
T4 sequence (Q8NGI9 with tags, fused parts or gaps): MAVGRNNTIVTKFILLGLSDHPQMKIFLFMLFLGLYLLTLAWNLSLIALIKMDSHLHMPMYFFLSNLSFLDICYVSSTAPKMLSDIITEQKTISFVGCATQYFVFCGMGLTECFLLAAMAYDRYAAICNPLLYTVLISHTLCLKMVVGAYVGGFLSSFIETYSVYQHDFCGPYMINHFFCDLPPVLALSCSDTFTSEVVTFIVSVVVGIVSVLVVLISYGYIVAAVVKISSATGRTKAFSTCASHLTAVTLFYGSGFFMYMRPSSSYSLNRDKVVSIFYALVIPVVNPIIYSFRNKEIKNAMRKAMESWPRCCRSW
Briefly: Ligand-induced puromycin resistance of isolated clone 3 containing OR5A2. The settings on record: clone 3 (OR5A2), 11 concentrations of puromycin, co-treated with olfactory ligands.

“Also recorded” adds a separate entry of the source.

Regarding `C=CCc1ccc(O)c(OC)c1` [eugenol], the “puromycin resistance in presence of odorant versus solvent control” value in experiment [1] is on record as “increased resistance to puromycin; also recorded: strongly enhanced puromycin resistance”; in experiment [2], “do not increase resistance over solvent control; also recorded: the resistance was equal to the solvent control”; in experiment [3], “no increased resistance”. In experiment [4], the “puromycin resistance of clone 3 in presence of odorant” value is on record as “no increased resistance”.

With `CC(=O)c1c(C)c([N+](=O)[O-])c(C(C)(C)C)c([N+](=O)[O-])c1C` [musk ketone], the results for the “puromycin resistance in presence of odorant versus solvent control” value in experiment [1], in experiment [2] and in experiment [3] were “does not increase resistance over solvent control; also recorded: no induced puromycin resistance over solvent control”, “increased resistance to puromycin; also recorded: enhanced puromycin resistance” and “no increased resistance”, respectively.

Source of the values: patent US20240426807A1, “SCREENING SYSTEM” (Givaudan SA, priority 2021, published 2024).
